Consider 3 compounds from ChEMBL document CHEMBL1201862, “PubChem BioAssay data set” (2004).

Some test systems named below: Malme-3M; NCI-H226; OVCAR-5; CAKI-1; SW-620; SNB-75; SK-OV-3; SK-MEL-28; PC-3; CCRF-CEM; DU-145; NCI-H522; NCI-H460; RPMI-8226; U-251; SF-539; SR; HT-29; UACC-257; UACC-62.
Test in all cases: inhibition of tumour cell growth, NCI panel, 48 h

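Method: 48-hour compound exposure of cells in 96-well plates, five concentrations, linear interpolation of endpoints. Here, GI50 denotes the concentration required for 50% inhibition of growth.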 Active and inactive are the calls of the source. No stated cut-off is given here; in the data, active = GI50 up to about 1.1 µM and inactive = higher.

As for `CCCC(=O)Nc1cc(C(=O)N2C[C@@H]3C[C@]34C2=CC(=O)c2[nH]cc(C)c24)n(COC)c1`, the GI50 was 2.59 µM (inactive) in the assay with Malme-3M; 11.2 µM (inactive) in the assay on NCI-H226; 34.4 µM (inactive) in the assay on OVCAR-5; 2.21 µM (inactive) in the assay with CAKI-1; 1.62 µM (inactive) in the assay with SW-620; 7.36 µM (inactive) in the assay with SNB-75. For the same compound, the GI50 in the assay on SK-OV-3 is 16.3 µM (inactive); in the assay on SK-MEL-28, 7.48 µM (inactive); in the assay on PC-3 it was 7.33 µM (inactive); in the assay with CCRF-CEM, 0.711 µM (active); in the assay with DU-145, 2.54 µM (inactive); with NCI-H522 it was 0.977 µM (active). For the same compound, the GI50 in the assay on NCI-H460 is 6.64 µM (inactive); in the assay with RPMI-8226, 12.2 µM (inactive); in the assay with U-251, 3.17 µM (inactive); in the assay on SF-539, 7.06 µM (inactive); in the assay with SR it was 0.566 µM (active); with HT-29, 8.55 µM (inactive). Moreover, the GI50 with UACC-257 is 9.79 µM (inactive); in the assay with UACC-62, 5.86 µM (inactive).

For the compound `N#CC(C#N)=C1SC(=N\c2ccccc2)/C(=N/c2ccccc2)N1c1ccccc1`, the GI50 with Malme-3M is 22.2 µM (inactive); in the assay on NCI-H226 it was 23.4 µM (inactive); in the assay with OVCAR-5, 20.7 µM (inactive); in the assay with CAKI-1, 11.8 µM (inactive); in the assay with SW-620, 3.28 µM (inactive); with SNB-75 it was 30 µM (inactive). For the same compound, the GI50 in the assay with SK-OV-3 is > 100 µM (inactive); in the assay with SK-MEL-28, 22 µM (inactive); in the assay on PC-3, 7.6 µM (inactive); in the assay on CCRF-CEM it was 2.09 µM (inactive); in the assay with DU-145 it was 42.9 µM (inactive); in the assay on NCI-H522 it was 1.94 µM (inactive). Also, the GI50 with NCI-H460 is 19.2 µM (inactive); in the assay with RPMI-8226, 5.75 µM (inactive); in the assay on U-251, 15.6 µM (inactive); in the assay on SF-539, 10.1 µM (inactive); in the assay on SR, 3.03 µM (inactive); in the assay with HT-29, 24.2 µM (inactive). Besides, the GI50 is 15.7 µM (inactive) in the assay on UACC-257 and 5.79 µM (inactive) in the assay on UACC-62.

In the case of `COc1cc2c(/C=C3/C(=O)Nc4ccc(O)cc43)c(Cl)n(Cc3ccccc3)c2cc1C`, the GI50 with Malme-3M was 0.24 µM (active); in the assay with NCI-H226 it was 0.948 µM (active); in the assay with OVCAR-5, 2.1 µM (inactive); in the assay with CAKI-1, 0.408 µM (active); in the assay on SW-620, 0.433 µM (active); in the assay on SNB-75, 0.979 µM (active). Further, the GI50 is 0.817 µM (active) in the assay with SK-OV-3; 3.56 µM (inactive) in the assay on SK-MEL-28; 0.897 µM (active) with PC-3; 0.873 µM (active) in the assay with CCRF-CEM; 1.16 µM (inactive) in the assay with DU-145; 1.22 µM (inactive) in the assay with NCI-H522. Besides, the GI50 is 0.553 µM (active) with NCI-H460; 0.687 µM (active) with RPMI-8226; 0.69 µM (active) with U-251; 0.392 µM (active) in the assay on SF-539; 0.356 µM (active) in the assay on SR; 0.75 µM (active) with HT-29. In addition, the GI50 in the assay with UACC-257 was 0.818 µM (active); in the assay on UACC-62, 2.37 µM (inactive).
